Experimental data from patent publication US20100331368A1, “2,5-DIARYL SELENOPHENE COMPOUNDS, AZA 2,5-DIARYL THIOPHENE COMPOUNDS, AND THEIR PRODRUGS AS ANTIPROTOZOAL AGENTS” (priority 2007, published 2010).
Structures can show the parent of a compound that is named as a salt. Where two headings read alike, the source gives them in different places.

Experiments:
[1] = system: Plasmodium falciparum (P. f.); experiment: In vitro antiprotozoal activity against Plasmodium falciparum; format: cell-based
Method: (§1) In vitro antiprotozoal activities were measured following established protocols. […] E., et al., Bioorg.

[2] = system: STIB 900 strain of Trypanosoma brucei rhodesiense; experiment: In vivo activity against T. b. r. STIB 900 in a mouse model; conditions: for Cures (number of mice that survive and are parasite free for 60 days) / Survival (average days of survival): mouse, days 3-6 post-infection; for Cures (number of mice that survive and are parasite free for 60 days): groups of four mice; for Survival (average days of survival): untreated controls expire between 7 and 8 days; for responders at 20 mg/kg / responders at 25 mg/kg / responders at 5 mg/kg: Trypanosoma brucei, 1440 h, read-out: Cures (number of mice that survive and are parasite free for 60 days)
Method: The activities of compounds 4, 5, 6, 11, 12, 18, 20, 22, 27, 28, 30 and 33 against the STIB 900 strain of Trypanosoma brucei rhodesiense (T. b. r.) in a mouse model are shown in Table 2. […] Groups of four mice were infected intraperitoneally with 2×10^5 bloodstream forms of T. b. r. STIB 900 which originates from a patient in Tanzania. On days 3, 4, 5, and 6 post-infection the experimental groups were treated with the drugs either by the intraperitoneal or for prodrugs by the oral route. Usually the highest tolerated dose was used which was determined in a pretoxicological experiment. Parasitemia of the mice was checked daily up to day 14 post-infection and thereafter 2 times per week up to day 60. One group of mice was not treated and acted as control. For relapsing mice, the day of death was recorded and the survival time determined.

[3] = system: L-6 rat mycoblast cells
[4] = system: Leishmania donovani (L. d.); experiment: In vitro assay against Leishmania donovani; format: cell-based
Method: as §1

[5] = system: Trypanosoma brucei rhodesiense (T. b. r.); experiment: In vitro antiprotozoal activity against Trypanosoma brucei rhodesiense; format: cell-based
Method: as §1

[6] = system: L-6 rat mycoblast cells; experiment: Cell toxicity assay in L-6 cells
[7] = in vitro, read-out: T.b.r. IC50
[8] = Plasmodium falciparum, in vitro, read-out: IC50 values versus P.f.
[9] = Plasmodium falciparum, in vitro, read-out: P.f. IC50
[10] = Leishmania donovani, in vitro, read-out: L.d. C50
[11] = Trypanosoma brucei, RHODESIENSE, in vitro, read-out: T.b.r. IC50
[12] = Leishmania donovani, in vitro, read-out: IC50 values versus L.d.
[13] = Trypanosoma brucei, RHODESIENSE, in vitro, read-out: IC50 values versus T.b.r.

`Cl.Cl.N=C(N)c1ccc(-c2ccc(-c3ccc(C(=N)N)cn3)s2)nc1` [Compound 30, 2,5-Bis-[2-(5-amidino-pyridyl)]thiophene dihydrochloride] was tested, and the IC50 ([1]; in vitro, read-out: P.f. IC50) was 18 nM, the “Cures (number of mice that survive and are parasite free for 60 days)” value ([2]; ip, 5 mg/kg) was 1/4 and the “Survival (average days of survival)” value ([2]; ip, 5 mg/kg) was 50.25 days. For the same compound, the Cytotoxocity [3] was >222 µM, the IC50 ([4]; in vitro, read-out: L.d. C50) was 23300 nM and the IC50 [5, 7] was 68 nM.

In the case of `Cl.Cl.N=C(N)c1ccc(-c2ccc(-c3ccc(C(=N)N)cc3)[se]2)cc1` [Compound 4, 2,5-Bis(4-amidinophenyl)selenophene Dihydrochloride], the Cytotoxocity [6] is reported as 9.7 µM, the IC50 ([1]; Plasmodium falciparum, read-out: IC50 values versus P.f.) is reported as ≤ 14 nM and the IC50 ([1]; Plasmodium falciparum, read-out: P.f. IC50) is reported as 2 nM. For the same compound, the responders at 20 mg/kg ([2]; ip) was 50%, the “Survival (average days of survival)” value ([2]; ip, 20 mg/kg) was 55.5 days and the IC50 ([4]; Leishmania donovani, read-out: IC50 values versus L.d.) was < 200 nM. For the same compound, the IC50 ([4]; Leishmania donovani, read-out: L.d. C50) was 170 nM, the IC50 ([5]; Trypanosoma brucei, RHODESIENSE, read-out: IC50 values versus T.b.r.) was ≤ 26 nM and the IC50 ([5]; Trypanosoma brucei, RHODESIENSE, read-out: T.b.r. IC50) was 2 nM.

In the case of `CO/N=C(\N)c1ccc(-c2ccc(-c3ccc(/C(N)=N/OC)nc3)[se]2)cc1` [Compound 20, 5-{5-[4-(N-Methoxyamidino)-phenyl]-selenophen-2-yl}-pyridine-2-N-methoxyamidine], the responders at 25 mg/kg ([2]; po) is reported as 25% and the “Survival (average days of survival)” value ([2]; po, 25 mg/kg) is reported as 36.5 days.

With `N=C(N)c1ccc(-c2ccc(-c3ccc(C(=N)N)cn3)[se]2)nc1` [Compound 27, 2,5-Bis-[2-(5-amidino-pyridyl)]selenophene dihydrochloride] the Cytotoxocity [6] was 158.3 µM, the IC50 [1, 8] was ≤ 14 nM and the IC50 [1, 9] was 10 nM. The responders at 5 mg/kg ([2]; ip) was 100%, the “Survival (average days of survival)” value ([2]; ip, 5 mg/kg) was 60 days and the IC50 [4, 10] was 5600 nM. For the same compound, the IC50 [5, 11] was 50 nM.

In the case of `N=C(N)c1ccc(-c2ccc(-c3ccc(C(=N)N)cc3)o2)cc1` [Furamidine, reference compound], the Cytotoxocity [6] is reported as 6.4 µM, the “Cures (number of mice that survive and are parasite free for 60 days)” value ([2]; ip, 10 mg/kg) is reported as 0/4 and the “Survival (average days of survival)” value ([2]; ip, 10 mg/kg) is reported as 44.5 days. For the same compound, the IC50 ([4]; in vitro, read-out: L.d. C50) was 2700 nM and the IC50 [5, 7] was 4.3 nM.

For `CONC(=N)c1ccc(-c2ccc(-c3ccc(C(=N)NOC)cc3)[se]2)cc1.Cl.Cl` [Compound 6, 2,5-Bis[4-(N-methoxyamidino)phenyl]selenophene Dihydrochloride], the responders at 25 mg/kg ([2]; po) was 0% and the “Survival (average days of survival)” value ([2]; po, 25 mg/kg) was 15.25 days.

With `N=C(N)c1ccc(-c2ccc(-c3ccc(C(=N)N)nc3)[se]2)cn1` [Compound 22, 2,5-Bis-[5-(2-amidino-pyridyl)]selenophene dihydrochloride] the Cytotoxocity [6] was 5.6 µM, the IC50 [1, 8] was ≤ 14 nM and the IC50 [1, 9] was 4 nM. The responders at 5 mg/kg ([2]; ip) was 100%, the “Survival (average days of survival)” value ([2]; ip, 5 mg/kg) was 60 days and the IC50 [4, 12] was < 200 nM. For the same compound, the IC50 [4, 10] was 53 nM, the IC50 [5, 13] was ≤ 26 nM and the IC50 [5, 11] was 2 nM.

With `Cl.Cl.N=C(N)c1ccc(-c2ccc(-c3ccc(C(=N)N)nc3)s2)cn1` [Compound 33, 2,5-Bis-[5-(2-amidino-pyridyl)]thiophene dihydrochloride] the IC50 ([1]; in vitro, read-out: P.f. IC50) was 3 nM, the “Cures (number of mice that survive and are parasite free for 60 days)” value ([2]; ip, 5 mg/kg) was 1/4 and the “Survival (average days of survival)” value ([2]; ip, 5 mg/kg) was 42.5 days. The Cytotoxocity [3] was 4.8 µM, the IC50 ([4]; in vitro, read-out: L.d. C50) was 127 nM and the IC50 [5, 7] was 4 nM.

With `N=C(N)c1ccc(-c2ccc(-c3ccc(C(=N)N)cn3)[se]2)cc1` [Compound 11, 6-[5-(4-Amidinophenyl)-selenophen-2-yl]-nicotinamidine] the Cytotoxocity [6] was 27.7 µM, the IC50 [1, 8] was ≤ 14 nM and the IC50 [1, 9] was 10 nM. For the same compound, the responders at 5 mg/kg ([2]; ip) was 100%, the “Survival (average days of survival)” value ([2]; ip, 5 mg/kg) was 60 days and the IC50 [4, 12] was 1600 nM. The IC50 [4, 10] was 1600 nM, the IC50 [5, 13] was ≤ 26 nM and the IC50 [5, 11] was 9 nM.

For `Cl.Cl.N=C(NO)c1ccc(-c2ccc(-c3ccc(C(=N)NO)cc3)[se]2)cc1` [Compound 5, 2,5-Bis[4-(N-hydroxyamidino)phenyl]selenophene Dihydrochloride], the responders at 25 mg/kg ([2]; po) was 0% and the “Survival (average days of survival)” value ([2]; po, 25 mg/kg) was 11.5 days.

In the case of `N/C(=N\O)c1ccc(-c2ccc(-c3ccc(/C(N)=N/O)cn3)[se]2)cc1` [Compound 12], the responders at 25 mg/kg ([2]; po) is reported as 0% and the “Survival (average days of survival)” value ([2]; po, 25 mg/kg) is reported as 26 days.

With `NC(=NO)c1ccc(-c2ccc(-c3ccc(C(N)=NO)cn3)[se]2)nc1` [Compound 28, 2,5-Bis-[2-{5-(N-hydroxyamidino)-pyridyl}]selenophene dihydrochloride] the responders at 25 mg/kg ([2]; po) was 0% and the “Survival (average days of survival)” value ([2]; po, 25 mg/kg) was 20 days.

`N=C(N)c1ccc(OCCCCCOc2ccc(C(=N)N)cc2)cc1` [Pentamidine, reference compound] was tested, and the responders at 20 mg/kg ([2]; ip) was 0%, the “Survival (average days of survival)” value ([2]; ip, 20 mg/kg) was 42.75 days and the IC50 [4, 10] was 2000 nM.

In the case of `N=C(N)c1ccc(-c2ccc(-c3ccc(C(=N)N)nc3)[se]2)cc1` [Compound 18, 5-[5-(4-Amidinophenyl)-selenophen-2-yl]-pyridine-2-amidine], the Cytotoxocity [6] is reported as 13.4 µM, the IC50 [1, 8] is reported as ≤ 14 nM and the IC50 [1, 9] is reported as 14 nM. The responders at 5 mg/kg ([2]; ip) was 100%, the “Survival (average days of survival)” value ([2]; ip, 5 mg/kg) was 60 days and the IC50 [4, 12] was < 200 nM. The IC50 [4, 10] was 130 nM, the IC50 [5, 13] was ≤ 26 nM and the IC50 [5, 11] was 26 nM.
